Laboratory results published in the kinase profiling compilation of Christmann-Franck et al. (2016).
“And” between values parts separate entries of the source, which are not always exact repeats. Identical values can stand only once.

How the values were obtained:
Assay in all cases: Caliper, Mobility shift assay off-chip
[1] = molecular target: CIT (human) (UniProt O14578)
[2] = molecular target: SPHK1 (human) (UniProt Q9NYA1)
[3] = molecular target: LYN (human) (UniProt P07948)
[4] = molecular target: PRKCA (human) (UniProt P17252)
[5] = molecular target: STK10 (human) (UniProt O94804)
[6] = molecular target: MAPK12 (human) (UniProt P53778)
[7] = molecular target: CDK7 (human) (UniProt P50613)
[8] = molecular target: MAPK3 (human) (UniProt P27361)
[9] = molecular target: DYRK1B (human) (UniProt Q9Y463)
[10] = molecular target: MAPK13 (human) (UniProt O15264)
[11] = molecular target: AXL (human) (UniProt P30530)
[12] = molecular target: PRKACA (human) (UniProt P17612)
[13] = molecular target: MKNK2 (human) (UniProt Q9HBH9)
[14] = molecular target: EPHB1 (human) (UniProt P54762)
[15] = molecular target: PTK2 (human) (UniProt Q05397)
[16] = molecular target: MAP4K4 (human) (UniProt O95819)
[17] = molecular target: RPS6KB1 (human) (UniProt P23443)
[18] = molecular target: PRKCG (human) (UniProt P05129)
[19] = molecular target: PAK7 (human) (UniProt Q9P286)
[20] = molecular target: ITK (human) (UniProt Q08881)
[21] = molecular target: FGR (human) (UniProt P09769)
[22] = molecular target: WNK2 (human) (UniProt Q9Y3S1)
[23] = molecular target: FGFR3 (human) (UniProt P22607)
[24] = molecular target: PLK3 (human) (UniProt Q9H4B4)
[25] = molecular target: PDK4 (human) (UniProt Q16654)
[26] = molecular target: CAMK2G (human) (UniProt Q13555)
[27] = molecular target: MINK1 (human) (UniProt Q8N4C8)
[28] = molecular target: GSG2 (human) (UniProt Q8TF76)
[29] = molecular target: AURKA (human) (UniProt O14965)
[30] = molecular target: CSNK1A1 (human) (UniProt P48729)
[31] = molecular target: FGFR4 (human) (UniProt P22455)
[32] = molecular target: PRKX (human) (UniProt P51817)
PRKX (human), sequence (P51817 whole entry, looked up): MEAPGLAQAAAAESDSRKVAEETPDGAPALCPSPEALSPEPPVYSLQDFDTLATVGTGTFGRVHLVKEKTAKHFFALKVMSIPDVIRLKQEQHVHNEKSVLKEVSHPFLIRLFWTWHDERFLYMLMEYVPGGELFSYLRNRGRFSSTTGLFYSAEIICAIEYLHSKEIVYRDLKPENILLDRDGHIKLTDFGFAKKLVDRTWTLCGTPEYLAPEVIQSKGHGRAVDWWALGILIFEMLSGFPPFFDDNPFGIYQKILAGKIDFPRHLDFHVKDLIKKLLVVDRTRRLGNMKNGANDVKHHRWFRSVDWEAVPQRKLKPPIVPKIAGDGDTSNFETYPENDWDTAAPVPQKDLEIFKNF

LYN (human), sequence (P07948 whole entry, looked up): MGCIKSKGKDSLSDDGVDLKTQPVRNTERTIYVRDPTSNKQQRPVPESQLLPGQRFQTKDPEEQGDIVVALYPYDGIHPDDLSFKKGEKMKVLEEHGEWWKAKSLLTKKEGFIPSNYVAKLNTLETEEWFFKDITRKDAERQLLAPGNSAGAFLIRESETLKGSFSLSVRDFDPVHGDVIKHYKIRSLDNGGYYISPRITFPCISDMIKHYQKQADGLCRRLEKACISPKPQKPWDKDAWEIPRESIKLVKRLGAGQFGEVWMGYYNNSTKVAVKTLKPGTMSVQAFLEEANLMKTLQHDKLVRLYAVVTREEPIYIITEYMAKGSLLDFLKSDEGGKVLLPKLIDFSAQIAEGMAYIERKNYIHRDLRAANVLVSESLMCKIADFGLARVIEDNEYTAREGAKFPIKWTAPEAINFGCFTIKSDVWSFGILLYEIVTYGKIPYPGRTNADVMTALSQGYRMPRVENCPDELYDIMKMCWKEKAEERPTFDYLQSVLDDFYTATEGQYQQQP
CSNK1A1 (human), sequence (P48729 whole entry, looked up): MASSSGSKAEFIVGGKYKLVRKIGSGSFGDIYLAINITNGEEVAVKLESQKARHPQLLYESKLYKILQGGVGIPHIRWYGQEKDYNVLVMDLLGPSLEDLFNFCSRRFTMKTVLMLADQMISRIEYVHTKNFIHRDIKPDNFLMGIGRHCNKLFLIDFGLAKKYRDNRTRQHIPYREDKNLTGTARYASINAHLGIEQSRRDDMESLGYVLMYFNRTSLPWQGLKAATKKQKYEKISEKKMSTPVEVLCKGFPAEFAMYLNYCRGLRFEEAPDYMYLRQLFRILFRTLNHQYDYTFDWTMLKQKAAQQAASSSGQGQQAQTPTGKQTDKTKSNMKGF
CDK7 (human), sequence (P50613 whole entry, looked up): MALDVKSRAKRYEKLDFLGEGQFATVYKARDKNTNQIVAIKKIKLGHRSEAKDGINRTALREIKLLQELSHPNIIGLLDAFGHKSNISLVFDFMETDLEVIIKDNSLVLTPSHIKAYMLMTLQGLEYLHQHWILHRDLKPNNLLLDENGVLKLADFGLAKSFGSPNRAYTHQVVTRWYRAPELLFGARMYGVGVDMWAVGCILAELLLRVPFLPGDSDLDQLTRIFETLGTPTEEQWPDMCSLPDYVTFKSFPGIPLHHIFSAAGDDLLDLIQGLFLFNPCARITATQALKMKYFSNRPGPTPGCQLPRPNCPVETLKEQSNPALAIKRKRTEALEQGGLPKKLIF
DYRK1B (human), sequence (Q9Y463 whole entry, looked up): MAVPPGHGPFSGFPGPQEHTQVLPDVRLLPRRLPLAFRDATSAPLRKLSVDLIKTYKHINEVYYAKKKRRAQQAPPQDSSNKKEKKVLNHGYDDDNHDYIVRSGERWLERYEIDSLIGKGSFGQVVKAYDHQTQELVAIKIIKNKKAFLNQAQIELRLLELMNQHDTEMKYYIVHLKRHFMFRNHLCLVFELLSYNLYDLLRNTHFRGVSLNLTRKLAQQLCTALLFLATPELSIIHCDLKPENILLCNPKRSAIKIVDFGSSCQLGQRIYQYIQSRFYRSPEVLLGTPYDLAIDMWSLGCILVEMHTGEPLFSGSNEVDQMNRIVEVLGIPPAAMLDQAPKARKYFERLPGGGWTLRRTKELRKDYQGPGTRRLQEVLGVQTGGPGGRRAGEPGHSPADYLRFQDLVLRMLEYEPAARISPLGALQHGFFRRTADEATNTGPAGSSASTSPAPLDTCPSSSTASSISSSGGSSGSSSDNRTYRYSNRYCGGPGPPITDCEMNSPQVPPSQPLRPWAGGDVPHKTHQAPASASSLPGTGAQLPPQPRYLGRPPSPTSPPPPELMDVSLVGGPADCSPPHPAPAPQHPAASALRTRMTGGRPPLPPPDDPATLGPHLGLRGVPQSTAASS
CAMK2G (human), sequence (Q13555 whole entry, looked up): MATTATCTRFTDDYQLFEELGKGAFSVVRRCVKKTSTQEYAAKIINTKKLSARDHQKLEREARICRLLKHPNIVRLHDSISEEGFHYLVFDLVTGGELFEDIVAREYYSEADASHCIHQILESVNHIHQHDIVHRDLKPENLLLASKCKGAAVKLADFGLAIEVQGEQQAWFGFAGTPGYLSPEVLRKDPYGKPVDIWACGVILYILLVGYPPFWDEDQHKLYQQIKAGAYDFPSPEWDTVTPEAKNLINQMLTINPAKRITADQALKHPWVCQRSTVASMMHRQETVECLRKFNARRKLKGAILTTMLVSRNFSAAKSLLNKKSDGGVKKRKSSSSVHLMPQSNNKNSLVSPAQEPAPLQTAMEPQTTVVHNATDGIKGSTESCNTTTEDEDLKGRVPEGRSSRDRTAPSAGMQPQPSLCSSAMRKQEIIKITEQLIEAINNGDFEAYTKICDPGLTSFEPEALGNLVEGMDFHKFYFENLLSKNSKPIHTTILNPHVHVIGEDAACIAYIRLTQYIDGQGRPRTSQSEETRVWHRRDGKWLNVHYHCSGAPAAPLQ
PTK2 (human), sequence (Q05397 whole entry, looked up): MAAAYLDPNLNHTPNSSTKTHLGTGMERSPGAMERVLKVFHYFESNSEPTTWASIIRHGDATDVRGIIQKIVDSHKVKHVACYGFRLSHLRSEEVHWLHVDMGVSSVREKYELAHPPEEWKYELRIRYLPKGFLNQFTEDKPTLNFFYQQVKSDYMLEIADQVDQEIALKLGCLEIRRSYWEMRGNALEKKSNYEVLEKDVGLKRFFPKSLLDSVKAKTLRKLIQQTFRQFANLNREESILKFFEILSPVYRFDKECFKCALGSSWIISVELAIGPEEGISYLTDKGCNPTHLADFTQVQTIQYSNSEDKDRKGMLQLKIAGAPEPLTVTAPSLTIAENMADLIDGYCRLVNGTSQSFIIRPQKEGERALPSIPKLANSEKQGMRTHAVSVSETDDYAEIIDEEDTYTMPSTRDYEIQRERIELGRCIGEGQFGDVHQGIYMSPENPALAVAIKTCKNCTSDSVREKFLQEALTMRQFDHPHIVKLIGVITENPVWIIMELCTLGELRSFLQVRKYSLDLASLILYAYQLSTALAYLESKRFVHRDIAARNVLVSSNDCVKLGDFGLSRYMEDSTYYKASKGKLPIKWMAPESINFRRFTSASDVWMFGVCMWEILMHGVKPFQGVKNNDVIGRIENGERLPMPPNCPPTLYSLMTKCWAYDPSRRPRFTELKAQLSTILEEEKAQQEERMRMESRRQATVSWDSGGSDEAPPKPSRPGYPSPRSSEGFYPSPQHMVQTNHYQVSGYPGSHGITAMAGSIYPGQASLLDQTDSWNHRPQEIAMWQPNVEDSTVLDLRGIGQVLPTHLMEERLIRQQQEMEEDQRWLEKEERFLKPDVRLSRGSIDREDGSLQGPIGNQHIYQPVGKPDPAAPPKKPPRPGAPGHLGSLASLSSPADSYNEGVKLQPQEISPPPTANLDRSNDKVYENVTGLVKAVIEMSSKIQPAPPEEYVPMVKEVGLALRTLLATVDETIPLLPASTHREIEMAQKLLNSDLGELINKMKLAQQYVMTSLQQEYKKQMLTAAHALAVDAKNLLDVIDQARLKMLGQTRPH
SPHK1 (human), sequence (Q9NYA1 whole entry, looked up): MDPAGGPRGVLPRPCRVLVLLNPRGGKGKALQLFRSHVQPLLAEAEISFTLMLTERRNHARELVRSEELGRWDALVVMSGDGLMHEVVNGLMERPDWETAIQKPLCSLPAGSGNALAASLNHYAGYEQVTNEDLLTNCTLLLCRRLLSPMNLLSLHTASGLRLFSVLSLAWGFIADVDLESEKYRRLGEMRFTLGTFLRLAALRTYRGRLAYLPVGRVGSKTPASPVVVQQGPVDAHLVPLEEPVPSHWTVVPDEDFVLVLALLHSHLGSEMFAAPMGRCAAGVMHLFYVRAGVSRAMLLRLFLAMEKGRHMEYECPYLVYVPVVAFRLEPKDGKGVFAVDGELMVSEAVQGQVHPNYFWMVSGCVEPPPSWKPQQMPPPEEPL

inhibition ([1]; compound 0.02 µM): -2.3%
inhibition ([1]; compound 0.2 µM): 0.3%
inhibition ([2]; compound 0.02 µM): -4.8%
inhibition ([2]; compound 0.2 µM): -5.9%
inhibition ([3]; compound 0.02 µM): 16.6% and 20.8%
inhibition ([3]; compound 0.2 µM): 62.4% and 63.7%
inhibition ([4]; compound 0.02 µM): -0.8%
inhibition ([4]; compound 0.2 µM): -1%
inhibition ([5]; compound 0.02 µM): 8.8%
inhibition ([5]; compound 0.2 µM): 39.2%
inhibition ([6]; compound 0.02 µM): -6.3%
inhibition ([6]; compound 0.2 µM): -2.7%
inhibition ([7]; compound 0.02 µM): -1.6%
inhibition ([7]; compound 0.2 µM): -2.2%
inhibition ([8]; compound 0.02 µM): -5%
inhibition ([8]; compound 0.2 µM): -2.7%
inhibition ([9]; compound 0.02 µM): -4.3%
inhibition ([9]; compound 0.2 µM): 7.4%
inhibition ([10]; compound 0.02 µM): -3.6%
inhibition ([10]; compound 0.2 µM): -3.8%
inhibition ([11]; compound 0.02 µM): 1.7%
inhibition ([11]; compound 0.2 µM): 10.3%
inhibition ([12]; compound 0.02 µM): -6.3%
inhibition ([12]; compound 0.2 µM): -5%
inhibition ([13]; compound 0.02 µM): 2.7%
inhibition ([13]; compound 0.2 µM): 1.5%
inhibition ([14]; compound 0.02 µM): -1%
inhibition ([14]; compound 0.2 µM): -1.6%
inhibition ([15]; compound 0.02 µM): -2%
inhibition ([15]; compound 0.2 µM): 8.3%
inhibition ([16]; compound 0.02 µM): 3.9%
inhibition ([16]; compound 0.2 µM): 24.6%
inhibition ([17]; compound 0.02 µM): 11.1%
inhibition ([17]; compound 0.2 µM): 20.6%
inhibition ([18]; compound 0.02 µM): 4%
inhibition ([18]; compound 0.2 µM): -6.3%
inhibition ([19]; compound 0.02 µM): 9%
inhibition ([19]; compound 0.2 µM): 1.3%
inhibition ([20]; compound 0.02 µM): 7%
inhibition ([20]; compound 0.2 µM): 2%
inhibition ([21]; compound 0.02 µM): 18.8%
inhibition ([21]; compound 0.2 µM): 54.2%
inhibition ([22]; compound 0.02 µM): 1%
inhibition ([22]; compound 0.2 µM): 4.3%
inhibition ([23]; compound 0.02 µM): 21.3%
inhibition ([23]; compound 0.2 µM): 68.5%
inhibition ([24]; compound 0.02 µM): 5.4%
inhibition ([24]; compound 0.2 µM): 5.7%
inhibition ([25]; compound 0.02 µM): -0.5%
inhibition ([25]; compound 0.2 µM): 0.8%
inhibition ([26]; compound 0.02 µM): 1.9%
inhibition ([26]; compound 0.2 µM): 2%
inhibition ([27]; compound 0.02 µM): 2%
inhibition ([27]; compound 0.2 µM): 10.8%
inhibition ([28]; compound 0.02 µM): -1.1%
inhibition ([28]; compound 0.2 µM): 4.3%
inhibition ([29]; compound 0.02 µM): 11.5%
inhibition ([29]; compound 0.2 µM): 40.7%
inhibition ([30]; compound 0.02 µM): -4.9%
inhibition ([30]; compound 0.2 µM): -7%
inhibition ([31]; compound 0.02 µM): 0.7%
inhibition ([31]; compound 0.2 µM): 29.7%
inhibition ([32]; compound 0.02 µM): -0.6%
inhibition ([32]; compound 0.2 µM): 0.8%
SMILES: Cc1ccc(Nc2nccc(N(C)c3ccc4c(C)n(C)nc4c3)n2)cc1S(N)(=O)=O
